Reference: US11427553B2, “Dihydrooxadiazinones” (Bayer Aktiengesellschaft, priority 2017, dated 2022)
Where two headings read alike, the source gives them in different places.

Columns and labels:
[1] = system: HeLa cells; experiment: Assay 1 cell proliferation measurement (CTG, 72 h), HeLa; assay type: cell-based, human; details: Assay 1, 72 h, Cell Titer Glo, read-out: HeLa IC50 [nM] (Cervical cancer)
Summary of the method: (§1)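 Seed cells, incubate overnight at 37 °C; measure baseline viability (CTG, 0 h plate); dose compound in a 10-step 2.5-fold series (max generally 100 nM final, DMSO 0.3%) for 72 h; read CTG luminescence; fit IC50 with 4 parameters.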

[2] = system: SK-MEL-3 cells; experiment: Assay 1 cell proliferation measurement (CTG, 72 h), SK-MEL-3; assay type: cell-based, human; details: Assay 1, 72 h, Cell Titer Glo, read-out: SK-MEL-3 IC50 [nM] (melanoma)
Summary of the method: as §1

[3] = target: human full length PDE3A (Homo sapiens (Human), UniProt Q14432); experiment: Assay 4 PDE3A enzyme inhibition (3H-cAMP SPA); assay type: biochemical; details: Sf9 cell extract
Chain of human full length PDE3A (Q14432 whole entry): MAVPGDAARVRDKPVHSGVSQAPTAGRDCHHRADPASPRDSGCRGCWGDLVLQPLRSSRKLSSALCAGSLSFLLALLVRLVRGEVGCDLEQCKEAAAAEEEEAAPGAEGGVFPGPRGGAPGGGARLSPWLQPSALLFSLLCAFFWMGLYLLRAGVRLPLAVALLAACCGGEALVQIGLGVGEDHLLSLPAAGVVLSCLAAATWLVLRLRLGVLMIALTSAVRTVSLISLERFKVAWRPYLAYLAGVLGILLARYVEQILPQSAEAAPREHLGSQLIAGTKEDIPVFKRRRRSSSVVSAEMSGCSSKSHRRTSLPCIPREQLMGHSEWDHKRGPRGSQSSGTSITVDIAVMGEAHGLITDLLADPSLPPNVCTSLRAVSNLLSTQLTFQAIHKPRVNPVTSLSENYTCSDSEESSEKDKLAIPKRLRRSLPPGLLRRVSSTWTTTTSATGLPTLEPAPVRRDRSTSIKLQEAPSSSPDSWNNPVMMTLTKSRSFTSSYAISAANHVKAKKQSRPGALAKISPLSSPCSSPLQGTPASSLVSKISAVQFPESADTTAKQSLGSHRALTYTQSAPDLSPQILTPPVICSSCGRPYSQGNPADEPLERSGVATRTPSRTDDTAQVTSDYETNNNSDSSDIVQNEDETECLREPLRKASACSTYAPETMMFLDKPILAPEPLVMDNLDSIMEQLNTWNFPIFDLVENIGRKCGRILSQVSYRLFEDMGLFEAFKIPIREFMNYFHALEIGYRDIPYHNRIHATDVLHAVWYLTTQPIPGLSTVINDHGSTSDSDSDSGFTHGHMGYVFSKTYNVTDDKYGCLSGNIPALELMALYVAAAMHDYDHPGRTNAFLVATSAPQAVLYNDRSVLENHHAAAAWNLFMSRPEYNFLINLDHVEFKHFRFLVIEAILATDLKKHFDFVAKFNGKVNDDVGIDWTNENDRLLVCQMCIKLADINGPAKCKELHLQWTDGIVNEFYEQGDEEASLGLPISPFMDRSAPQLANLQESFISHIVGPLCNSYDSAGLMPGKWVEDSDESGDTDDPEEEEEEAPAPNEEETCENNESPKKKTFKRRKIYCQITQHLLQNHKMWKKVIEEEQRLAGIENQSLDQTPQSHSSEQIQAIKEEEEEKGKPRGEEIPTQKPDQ
Summary of the method: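 In this SPA format, the 60-min room-temperature reaction used 0.025 μCi [8-3H]cAMP and diluted full-length PDE3A from Sf9 cells. Percentage activity was plotted against log compound concentration to derive IC50.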

[4] = target: human full length PDE3B (Homo sapiens (Human), UniProt Q13370); experiment: Assay 5 PDE3B enzyme inhibition (3H-cAMP SPA); assay type: biochemical; details: Sf9 cell extract
Chain of human full length PDE3B (Q13370 whole entry): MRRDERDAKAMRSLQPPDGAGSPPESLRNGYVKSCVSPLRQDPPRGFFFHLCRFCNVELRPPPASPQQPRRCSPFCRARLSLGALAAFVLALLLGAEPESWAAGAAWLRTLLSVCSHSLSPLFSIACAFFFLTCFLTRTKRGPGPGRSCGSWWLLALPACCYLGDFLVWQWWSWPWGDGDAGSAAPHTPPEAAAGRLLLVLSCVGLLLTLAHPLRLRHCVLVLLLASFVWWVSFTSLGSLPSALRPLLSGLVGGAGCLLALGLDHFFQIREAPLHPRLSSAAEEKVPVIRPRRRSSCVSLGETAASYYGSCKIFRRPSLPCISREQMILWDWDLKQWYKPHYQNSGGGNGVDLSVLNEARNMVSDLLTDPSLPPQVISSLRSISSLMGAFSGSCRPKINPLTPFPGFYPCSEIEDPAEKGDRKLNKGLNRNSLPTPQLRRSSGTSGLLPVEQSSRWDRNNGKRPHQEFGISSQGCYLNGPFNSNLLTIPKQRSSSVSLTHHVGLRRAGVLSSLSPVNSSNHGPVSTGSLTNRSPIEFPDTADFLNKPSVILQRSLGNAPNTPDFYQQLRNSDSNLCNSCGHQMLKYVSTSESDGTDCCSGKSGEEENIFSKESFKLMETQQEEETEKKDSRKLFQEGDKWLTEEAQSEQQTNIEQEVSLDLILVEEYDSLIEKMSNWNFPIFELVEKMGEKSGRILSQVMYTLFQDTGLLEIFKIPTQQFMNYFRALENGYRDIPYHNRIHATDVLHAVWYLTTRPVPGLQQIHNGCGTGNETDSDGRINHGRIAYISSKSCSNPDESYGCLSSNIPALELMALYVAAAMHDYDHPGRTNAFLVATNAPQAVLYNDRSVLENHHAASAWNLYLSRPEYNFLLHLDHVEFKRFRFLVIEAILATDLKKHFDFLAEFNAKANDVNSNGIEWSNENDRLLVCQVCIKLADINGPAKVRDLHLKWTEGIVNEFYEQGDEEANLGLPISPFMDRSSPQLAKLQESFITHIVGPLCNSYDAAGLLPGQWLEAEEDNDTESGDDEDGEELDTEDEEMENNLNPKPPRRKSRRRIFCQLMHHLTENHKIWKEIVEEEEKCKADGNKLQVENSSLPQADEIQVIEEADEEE
Summary of the method: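 Hydrolysis of tritiated cAMP by Sf9-expressed full-length human PDE3B proceeded 60 min at room temperature in Tris buffer pH 7.5 containing Mg2+, EDTA and BSA, with enzyme dilution keeping substrate consumption below 70%. IC50 derived from percent activity versus log compound concentration.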

Structure (SMILES)	IC50 ([1]; Homo sapiens, HeLa) [nM]	IC50 ([2]; Homo sapiens, SK-MEL3) [nM]	IC50 [3] [µM]	IC50 [4] [µM]	IC50 [1] [nM]	IC50 [2] [nM]
O=C1NN=C(c2ccc(C3=CCCOC3)c(C(F)(F)F)c2)CO1 [Example 142, 5-[4-(5,6-dihydro-2H-pyran-3-yl)-3-(trifluoromethyl)phenyl]-3,6-dihydro-2H-1,3,4-oxadiazin-2-one]	3	4	0.025	0.047	–	–
O=C1NN=C(c2ccc(-c3ccc(F)cc3Cl)c(F)c2)CO1 [Example 82, 5-(2′-Chloro-2,4′-difluorobiphenyl-4-yl)-3,6-dihydro-2H-1,3,4-oxadiazin-2-one]	4	9	0.2	0.32	–	–
Cc1cc(-c2ccc(C3=NNC(=O)OC3)cc2C(F)(F)F)sc1C#N [Example 152, 3-Methyl-5-[4-(2-oxo-3,6-dihydro-2H-1,3,4-oxadiazin-5-yl)-2-(trifluoromethyl)phenyl]thiophene-2-carbonitrile]	21	56	0.063	0.076	–	–
CNc1ccc(-c2ccc(C3=NNC(=O)OC3)cc2C(F)(F)F)cc1 [Example 55, 5-[4′-(Methylamino)-2-(trifluoromethyl)biphenyl-4-yl]-3,6-dihydro-2H-1,3,4-oxadiazin-2-one]	7	14	0.28	0.25	–	–
Cc1ccc(-c2ccc(C3=NNC(=O)OC3)cc2C(F)(F)F)cn1 [Example 32, 5-[4-(6-Methylpyridin-3-yl)-3-(trifluoromethyl)phenyl]-3,6-dihydro-2H-1,3,4-oxadiazin-2-one]	5	7	0.067	0.11	–	–
Cc1cc(C2=NNC(=O)OC2)ccc1Cl [Intermediate 76, 5-(4-Chloro-3-methylphenyl)-3,6-dihydro-2H-1,3,4-oxadiazin-2-one]	40	75	0.375	0.13	–	–
C[C@H]1C[C@H](C)N1c1ccc(C2=NNC(=O)OC2)cc1C(F)(F)F (relative stereo) [Example 208, (cis or trans)-5-{4-[2,4-Dimethylazetidin-1-yl]-3-(trifluoromethyl)phenyl}-3,6-dihydro-2H-1,3,4-oxadiazin-2-one]	–	–	0.11	0.14	5	7
O=C1NN=C(c2ccc(N3CCOCC3)c(C(F)(F)F)c2)CO1 [Example 65, 5-[4-(Morpholin-4-yl)-3-(trifluoromethyl)phenyl]-3,6-dihydro-2H-1,3,4-oxadiazin-2-one]	2	3	0.025	0.03	–	–
C[C@@H]1OC(=O)NN=C1c1cc(F)c(N2CCOCC2)c(F)c1 [Example 25-2, (6S)-5-(3,5-Difluoro-4-morpholinophenyl)-6-methyl-3,6-dihydro-2H-1,3,4-oxadiazin-2-one]	3	5	0.017	0.015	–	–
O=C1NN=C(c2ccc(-c3ccccc3F)c(C(F)(F)F)c2)CO1 [Example 155, 5-[2′-Fluoro-2-(trifluoromethyl)[1,1′-biphenyl]-4-yl]-3,6-dihydro-2H-1,3,4-oxadiazin-2-one]	9	17	0.092	0.11	–	–
CC1CN(c2c(F)cc(C3=NNC(=O)OC3C)cc2F)CCO1 (centres unmarked) [Example 18, 5-{3,5-Difluoro-4-[2-methylmorpholin-4-yl]phenyl}-6-methyl-3,6-dihydro-2H-1,3,4-oxadiazin-2-one]	18	74	0.45	0.22	–	–
Nc1cc(-c2ccc(C3=NNC(=O)OC3)cc2C(F)(F)F)ccc1F [Example 56, 5-[3′-Amino-4′-fluoro-2-(trifluoromethyl)biphenyl-4-yl]-3,6-dihydro-2H-1,3,4-oxadiazin-2-one]	5	10	0.18	0.08	–	–
Nc1ccc(-c2ccc(C3=NNC(=O)OC3)cc2C(F)(F)F)cn1 [Example 40, 5-[4-(6-Aminopyridin-3-yl)-3-(trifluoromethyl)phenyl]-3,6-dihydro-2H-1,3,4-oxadiazin-2-one]	5	7	0.042	0.039	–	–
O=C1NN=C(c2ccc(-c3ccccc3O)c(F)c2)CO1 [Example 106, 5-(2-Fluoro-2′-hydroxy[1,1′-biphenyl]-4-yl)-3,6-dihydro-2H-1,3,4-oxadiazin-2-one]	9	16	0.12	0.24	–	–
CC1OC(=O)NN=C1c1ccc(Br)cc1 (racemic) [Intermediate 72, (rac)-5-(4-Bromophenyl)-6-methyl-3,6-dihydro-2H-1,3,4-oxadiazin-2-one]	78	260	0.32	0.4	–	–
Cc1cc(C2=NNC(=O)OC2)ccc1-c1cn[nH]c1 [Example 11, 5-[3-Methyl-4-(1H-pyrazol-4-yl)phenyl]-3,6-dihydro-2H-1,3,4-oxadiazin-2-one]	19	49	0.084	0.065	–	–
Cc1cc(C2=NNC(=O)OC2)ccc1-c1cccc(F)c1 [Example 15, 5-(3′-Fluoro-2-methylbiphenyl-4-yl)-3,6-dihydro-2H-1,3,4-oxadiazin-2-one]	8	16	0.11	0.11	–	–
O=C1NN=C(c2ccc(C3=CCOC3)c(C(F)F)c2)CO1 [Example 329, 5-[3-(difluoromethyl)-4-(2,5-dihydrofuran-3-yl)phenyl]-3,6-dihydro-2H-1,3,4-oxadiazin-2-one]	41	64	0.1	0.093	–	–
O=C1NN=C(c2ccc([C@H]3CC[C@H](O)CC3)c(C(F)(F)F)c2)CO1 [Example 272, (trans)-5-{4-[4-hydroxycyclohexyl]-3-(trifluoromethyl)phenyl}-3,6-dihydro-2H-1,3,4-oxadiazin-2-one]	1	1	0.019	0.01	–	–
Cc1cccc(-c2ccc(C3=NNC(=O)OC3)cc2F)c1 [Example 87, 5-(2-Fluoro-3′-methylbiphenyl-4-yl)-3,6-dihydro-2H-1,3,4-oxadiazin-2-one]	10	32	0.081	0.23	–	–

The remaining compounds from weak to strong by IC50 [3], led by results:

IC50 ([1]; Homo sapiens, HeLa) [nM]	IC50 ([2]; Homo sapiens, SK-MEL3) [nM]	IC50 [3] [µM]	IC50 [4] [µM]	IC50 [1] [nM]	IC50 [2] [nM]	Structure (SMILES)
58	> 100	0.72	> 1	–	–	O=C1NN=C(c2ccc(Cl)c(OC(F)(F)F)c2)CO1 [Intermediate 73, 5-[4-Chloro-3-(trifluoromethoxy)phenyl]-3,6-dihydro-2H-1,3,4-oxadiazin-2-one]
83	> 100	0.21	0.26	–	–	Nc1cc(-c2ccc(C3=NNC(=O)OC3)cc2C(F)(F)F)c(F)cc1F [Example 38, 5-[5′-Amino-2′,4′-difluoro-2-(trifluoromethyl)biphenyl-4-yl]-3,6-dihydro-2H-1,3,4-oxadiazin-2-one]
1	4	0.099	0.079	–	–	O=C1NN=C(c2ccc(-c3ccc(F)cc3)c(F)c2)CO1 [Example 30, 5-(2,4′-Difluorobiphenyl-4-yl)-3,6-dihydro-2H-1,3,4-oxadiazin-2-one]
1	1	0.076	0.12	–	–	COCCNc1ccc(C2=NNC(=O)OC2)cc1C(F)(F)F [Example 222, 5-{4-[(2-Methoxyethyl)amino]-3-(trifluoromethyl)phenyl}-3,6-dihydro-2H-1,3,4-oxadiazin-2-one]
2	6	0.075	0.11	–	–	Cc1cc(C2=NNC(=O)OC2)ccc1-c1ccccc1 [Example 27, 5-(2-Methylbiphenyl-4-yl)-3,6-dihydro-2H-1,3,4-oxadiazin-2-one]
3	6	0.06	0.064	–	–	Cc1ccncc1-c1ccc(C2=NNC(=O)OC2)cc1F [Example 118, 5-[3-Fluoro-4-(4-methylpyridin-3-yl)phenyl]-3,6-dihydro-2H-1,3,4-oxadiazin-2-one]
2	3	0.044	0.022	–	–	C[C@@H]1OC(=O)NN=C1c1ccc(N2CCOCC2)c(F)c1 [Example 25-1, (6S)-5-(3-Fluoro-4-morpholinophenyl)-6-methyl-3,6-dihydro-2H-1,3,4-oxadiazin-2-one]
2	5	0.018	0.02	–	–	O=C1NN=C(c2ccc(NC3COC3)c(C(F)(F)F)c2)CO1 [Example 262, 5-{4-[(Oxetan-3-yl)amino]-3-(trifluoromethyl)phenyl}-3,6-dihydro-2H-1,3,4-oxadiazin-2-one]
4	7	0.015	0.026	–	–	CC(C)n1cc(-c2ccc(C3=NNC(=O)OC3)cc2C(F)(F)F)cn1 [Example 153, 5-{4-[1-(Propan-2-yl)-1H-pyrazol-4-yl]-3-(trifluoromethyl)phenyl}-3,6-dihydro-2H-1,3,4-oxadiazin-2-one]
